≈ marks a conversion by molar mass, not a printed value. Where a SMILES comes first, the peptide text is derived from it.
Tests used:
E. coli ATCC 25922 = format: cell-based, Escherichia coli; conditions: ATCC 25922
Method in brief: (§1)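 CLSI broth microdilution adapted for cationic peptides, in Mueller-Hinton broth, inoculum 2-8×10^5 cfu/mL. Peptides serially diluted from 128 to 0.5 μg/mL in polypropylene plates, incubated 20-24 h at 37° C. MIC = lowest concentration without visible growth.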

[1] = tested on: E. coli ATCC 25922, Salmonella Enteritidis, S. aureus ATCC 29213; test: Broth microdilution, panel result (at least one / all strains), Example 2; format: cell-based; design: key to inhibitory activity (asterisk): *Indicates inhibitory activity; conditions: Table 14; against at least one of E. coli ATCC 25922, Salmonella Enteritidis, S. aureus ATCC 29213
Procedure: The antimicrobial activity of the putative AMPs was determined by a broth microdilution assay as described by the Clinical and Laboratory Standards Institute, with the published adaptations for testing of cationic peptides. Escherichia coli 25922 and Staphylococcus aureus 29213 isolates were purchased from the American Type Culture Collection (ATCC; Manassas, VA, USA). A human clinical isolate of Salmonella enterica serovar Enteritidis was provided by the BC Centre for Disease Control. Bacteria from stocks stored at −80° C. were streaked onto nonselective Columbia blood agar with 5% sheep blood (Oxoid) and incubated overnight at 37° C. Next, 2-4 colonies were streaked onto a new agar plate to ensure uniform health of colonies used in the broth microdilution assay. Isolated colonies were suspended in MHB and the optical density was measured with a spectrophotometer to create an initial inoculum concentration of approximately 1×10^8 cfu/mL. The inoculum was diluted 1:250 to a final concentration of 2-8×10^5 cfu/mL, which was confirmed by performing a Total Viability Count (TVC). The TVC consisted of plating a 1:1000 dilution of the final inoculum on nonselective media and was also used to confirm the health and purity of the inoculum in each trial.
Lyophilized 80 μg peptide aliquots synthesized by GenScript (Piscataway, NJ, USA) were resuspended to 1.28 mg/mL with UltraPure water (Thermo Fisher Scientific, Waltham, MA, USA) and serially diluted in polypropylene 96-well microtiter plates (Greiner Bio-One #650261, Kremsmunster, Austria) from 128 down to 0.5 μg/mL. Two columns per plate were reserved for growth and sterility controls. Inoculum was added to the wells containing the peptide and the growth control. Plates were incubated for 20-24 h at 37° C. The minimum inhibitory concentration (MIC) was determined as the lowest peptide concentration where there was no visible bacterial growth.

S. aureus ATCC 29213 = format: cell-based, Staphylococcus aureus; conditions: ATCC 29213
Method in brief: as §1

[2] = tested on: Salmonella enterica serovar Enteritidis (human clinical isolate); format: cell-based; conditions: serovar Enteritidis (human clinical isolate)
Method in brief: as §1

Row | Structure (SMILES) | MIC (ug/mL) E. coli (E. coli ATCC 25922) | MIC (ug/mL) S. aureus (S. aureus ATCC 29213) | MIC (ug/mL) S. Enteritidis [2] | inhibitory activity (asterisk) [1]
1 | CC[C@H](C)[C@H](NC(=O)[C@@H](N)C(C)C)C(=O)N1CCC[C@H]1C(=O)N[C@@H](Cc1ccccc1)C(=O)N[C@H](C(=O)N[C@@H](C)C(=O)N[C@@H](CO)C(=O)N[C@H](C(=O)N[C@@H](C)C(=O)N[C@@H](C)C(=O)N[C@@H](CCC(=O)O)C(=O)N[C@@H](CCSC)C(=O)N[C@@H](CCSC)C(=O)N[C@@H](Cc1c[nH]cn1)C(=O)N[C@@H](Cc1c[nH]cn1)C(=O)N[C@H](C(=O)N[C@@H](Cc1ccc(O)cc1)C(=O)N[C@@H](CS)C(=O)N[C@@H](C)C(=O)N[C@@H](C)C(=O)N[C@@H](CO)C(=O)N[C@@H](CCCCN)C(=O)N[C@@H](CCCNC(=N)N)C(=O)N[C@@H](CS)C(=O)N[C@@H](CCCCN)C(=O)N[C@@H](CC(N)=O)C(=O)O)C(C)C)C(C)C)C(C)C [PeNi7] (H-VIPFVASVAAEMMHHVYCAASKRCKN-OH; N-terminus and C-terminus assumed) |  |  |  | 1088.* VIPFVASVAAEMMHHVYCAASKRCKN
2 | CC[C@H](C)[C@H](NC(=O)CN)C(=O)N[C@@H](CC(C)C)C(=O)N[C@@H](CC(C)C)C(=O)N[C@@H](CC(N)=O)C(=O)N[C@H](C(=O)N[C@@H](CC(C)C)C(=O)N[C@@H](CCCCN)C(=O)NCC(=O)N[C@@H](C)C(=O)N[C@@H](C)C(=O)N[C@@H](CCCCN)C(=O)N[C@@H](CC(N)=O)C(=O)N[C@H](C(=O)N[C@@H](C)C(=O)NCC(=O)N[C@H](C(=O)N[C@@H](CC(C)C)C(=O)N[C@@H](CC(C)C)C(=O)N[C@@H](CC(=O)O)C(=O)N[C@@H](CCCCN)C(=O)N[C@@H](CC(C)C)C(=O)N[C@@H](CCCCN)C(=O)N[C@@H](CS)C(=O)N[C@@H](CCCCN)C(=O)N[C@H](C(=O)N[C@H](C(=O)NCC(=O)NCC(=O)N[C@@H](CS)C(=O)O)[C@@H](C)O)[C@@H](C)CC)C(C)C)C(C)C)[C@@H](C)O [PeNi8] (H-GILLNTLKGAAKNVAGVLLDKLKCKITGGC-OH; N-terminus and C-terminus assumed) |  |  |  | 1097.* GILLNTLKGAAKNVAGVLLDKLKCKITGGC
3 | CC[C@H](C)[C@H](NC(=O)[C@H](CO)NC(=O)[C@@H]1CCCN1C(=O)[C@H](CC(C)C)NC(=O)[C@@H](NC(=O)[C@H](CCCCN)NC(=O)[C@H](C)NC(=O)[C@H](C)NC(=O)[C@H](CC(C)C)NC(=O)CNC(=O)[C@H](C)NC(=O)[C@@H](NC(=O)[C@@H](NC(=O)[C@@H]1CCCN1C(=O)[C@H](CC(C)C)NC(=O)[C@@H](N)Cc1ccccc1)C(C)C)C(C)C)C(C)C)C(=O)N[C@H](C(=O)N[C@@H](CS)C(=O)N[C@@H](C)C(=O)N[C@H](C(=O)N[C@H](C(=O)N[C@@H](CCCCN)C(=O)N[C@@H](CCCCN)C(=O)N[C@@H](CS)C(=O)O)[C@@H](C)O)C(C)C)[C@@H](C)CC [RaCa15] (H-FLPVVAGLAAKVLPSIICAVTKKC-OH; N-terminus and C-terminus assumed) |  |  |  | 1098.* FLPVVAGLAAKVLPSIICAVTKKC
4 | CC[C@H](C)[C@H](NC(=O)[C@H](CO)NC(=O)[C@@H]1CCCN1C(=O)[C@H](CC(C)C)NC(=O)[C@@H](NC(=O)[C@H](CCCCN)NC(=O)[C@H](C)NC(=O)[C@H](C)NC(=O)[C@H](CC(C)C)NC(=O)CNC(=O)[C@H](C)NC(=O)[C@@H](NC(=O)[C@@H](NC(=O)[C@@H]1CCCN1C(=O)[C@H](CC(C)C)NC(=O)[C@H](Cc1ccccc1)NC(=O)[C@H](CCCNC(=N)N)NC(=O)[C@H](CCC(N)=O)NC(=O)[C@H](CCC(=O)O)NC(=O)[C@@H](N)CCC(=O)O)C(C)C)C(C)C)C(C)C)C(=O)N[C@H](C(=O)N[C@@H](CS)C(=O)N[C@@H](C)C(=O)N[C@H](C(=O)N[C@H](C(=O)N[C@@H](CCCCN)C(=O)N[C@@H](CCCCN)C(=O)N[C@@H](CS)C(=O)O)[C@@H](C)O)C(C)C)[C@@H](C)CC [RaSy2] (H-EEQRFLPVVAGLAAKVLPSIICAVTKKC-OH; N-terminus and C-terminus assumed) |  |  |  | 673.* EEQRFLPVVAGLAAKVLPSIICAVTKKC

Continued, in another order:

Row | MIC (ug/mL) E. coli (E. coli ATCC 25922) | MIC (ug/mL) S. aureus (S. aureus ATCC 29213) | MIC (ug/mL) S. Enteritidis [2] | Structure (SMILES) | inhibitory activity (asterisk) [1]
5 | 128/>128/>128 ug/mL | 128/>128/>128 ug/mL | 128/>128/>128 ug/mL | CC[C@H](C)[C@H](NC(=O)[C@@H]1CCCN1C(=O)[C@H](CS)NC(=O)[C@H](C)NC(=O)[C@@H](N)Cc1ccccc1)C(=O)NCC(=O)N[C@@H](Cc1ccccc1)C(=O)N[C@@H](Cc1ccccc1)C(=O)N[C@@H](CCCNC(=N)N)C(=O)N[C@@H](CC(C)C)C(=O)N[C@@H](CCCCN)C(=O)N[C@@H](CCCNC(=N)N)C(=O)O [CaCa1, FACPIGFFRLKR] (H-FACPIGFFRLKR-OH; N-terminus and C-terminus assumed) | 826.* FACPIGFFRLKR
6 | 4 to 8 µg/mL | 16 to 32 µg/mL | 32 µg/mL (≈ 15.9 µM) | CC[C@H](C)[C@H](NC(=O)CNC(=O)[C@H](C)NC(=O)[C@@H](NC(=O)[C@@H](NC(=O)[C@H](CO)NC(=O)[C@H](C)NC(=O)[C@@H](NC(=O)[C@H](CCCCN)NC(=O)[C@H](CCCCN)NC(=O)[C@H](C)NC(=O)[C@@H](NC(=O)[C@H](CC(=O)O)NC(=O)[C@H](CC(C)C)NC(=O)[C@H](Cc1c[nH]c2ccccc12)NC(=O)CN)[C@@H](C)CC)C(C)C)C(C)C)C(C)C)C(=O)N[C@H](C(=O)N[C@@H](CCCCN)C(=O)N[C@@H](CCCNC(=N)N)C(=O)O)C(C)C [LiVe1, GWLDIAKKVASVVAGIVKR] (H-GWLDIAKKVASVVAGIVKR-OH; N-terminus and C-terminus assumed) | 37.* GWLDIAKKVASVVAGIVKR
7 | 4 to 8 µg/mL | 64 µg/mL (≈ 32.5 µM) | 64 to 128 µg/mL | CC[C@H](C)[C@H](NC(=O)[C@H](CC(=O)O)NC(=O)[C@H](CC(C)C)NC(=O)[C@H](Cc1c[nH]c2ccccc12)NC(=O)CN)C(=O)N[C@@H](C)C(=O)N[C@@H](CCCCN)C(=O)N[C@@H](CCCCN)C(=O)N[C@H](C(=O)N[C@@H](C)C(=O)N[C@@H](CO)C(=O)N[C@H](C(=O)N[C@H](C(=O)N[C@@H](C)C(=O)NCC(=O)N[C@@H](CC(C)C)C(=O)NCC(=O)N[C@@H](CCCCN)C(=O)N[C@@H](CCCNC(=N)N)C(=O)O)C(C)C)C(C)C)C(C)C [LiVe2, GWLDIAKKVASVVAGLGKR] (H-GWLDIAKKVASVVAGLGKR-OH; N-terminus and C-terminus assumed) | 40.* GWLDIAKKVASVVAGLGKR
8 | 8 to 16 µg/mL | 128 µg/mL (≈ 88.5 µM) | 64 µg/mL (≈ 44.3 µM) | CC(C)C[C@H](NC(=O)[C@H](CCCCN)NC(=O)[C@H](Cc1c[nH]c2ccccc12)NC(=O)[C@H](CC(C)C)NC(=O)[C@@H](NC(=O)[C@H](CC(C)C)NC(=O)[C@H](Cc1ccccc1)NC(=O)[C@H](CC(C)C)NC(=O)[C@@H](N)CCCCN)[C@@H](C)O)C(=O)N[C@@H](CCCCN)C(=O)N[C@@H](CCCNC(=N)N)C(=O)O [NaVi3, KLFLTLWKLKR] (H-KLFLTLWKLKR-OH; N-terminus and C-terminus assumed) | 895.* KLFLTLWKLKR
9 | 8 to 16 µg/mL | 64 µg/mL (≈ 32.1 µM) | 128 µg/mL (≈ 64.2 µM) | CC[C@H](C)[C@H](NC(=O)CNC(=O)[C@H](CO)NC(=O)[C@H](CC(C)C)NC(=O)[C@H](CC(C)C)NC(=O)CN)C(=O)N[C@@H](CC(C)C)C(=O)NCC(=O)N[C@@H](C)C(=O)NCC(=O)N[C@@H](CCCCN)C(=O)N[C@@H](CCCCN)C(=O)N[C@H](C(=O)N[C@H](C(=O)N[C@@H](CS)C(=O)NCC(=O)N[C@@H](Cc1ccccc1)C(=O)N[C@@H](CO)C(=O)NCC(=O)N[C@@H](CC(C)C)C(=O)N[C@@H](CS)C(=O)O)C(C)C)[C@@H](C)CC [OdMa1] (H-GLLSGILGAGKKIVCGFSGLC-OH; N-terminus and C-terminus assumed) | 71.* GLLSGILGAGKKIVCGFSGLC

Reference: patent US20260242416A1, “ANTIMICROBIAL PEPTIDES” (priority 2023, published 2026)
